Values of other authors in US20020040051A1, “Solid dispersion of ipriflavone for oral administration and its manufacturing methods” (priority 2000, published 2002).
≈ marks a conversion by molar mass, not a printed value.

Legend:
[1] = 200 mg 3-4 times daily (600-800 mg daily), healthy adult male (18-60 yr); cited from earlier work
[2] = cited from earlier work

CC(C)Oc1ccc2c(=O)c(-c3ccccc3)coc2c1 [compound 1, 3-phenyl-7-isopropoxy-4H-1-benzopyrane-4-one]
day of administration on which blood concentration reaches an effective level [1]: 3rd or 4th day | water solubility [2]: 1 µg/mL (≈ 3.57 µM)
